# Like-named read-outs stand apart in the source and are kept apart here.
# Experiments:
# [1] = Cytotoxicity in PBMCs (XTT); assay type: cell-based; settings: human, PHA-P stimulated PBMCs pooled from three donors, read-out: TC50
# Method: (§1) (b) Anti-HIV-1 Cytoprotection Assay in PBMCs: PHA-P stimulated PBMCs from three donors were pooled together and re-suspended in fresh tissue culture medium at 1×10^6 cells/ml and plated in the interior wells of a 96 well round bottom microplate at 50 μL/well. A 100 μL volume of 2× concentrations of compound-containing media were transferred to the round-bottom 96-well plate containing the cells in triplicate. Fifty microliters (50 μL) of HIV-1 at a pre-determined dilution was added. Each plate contained cell control wells and virus control wells in parallel with the experimental wells. After 7 days in culture, efficacy was evaluated by measuring the reverse transcriptase in the culture supernatants and the cells were stained with the tetrazolium dye XTT to evaluate cytotoxicity.
# as §1, with “This Example illustrates anti-HIV cytoprotection provided by compounds” for “(b) Anti-HIV-1 Cytoprotection Assay”, “accordance with another aspect of the invention, namely in PBMCs.” for “PBMCs:”
# HIV-192RW009 = experiment: Anti-HIV-1 cytoprotection assay in PBMCs (reverse transcriptase in supernatant); assay type: cell-based; settings: Human immunodeficiency virus 1, 168 h; PBMC, HIV-192RW009, 7 days
# Method: as §1
# HIV-1 RU132 (G) = experiment: Anti-HIV-1 cytoprotection assay in PBMCs, isolate RU132 (G); assay type: cell-based; settings: Human immunodeficiency virus 1, CCR5
# Method: as §1, with “This Example illustrates anti-HIV cytoprotection provided by compounds” for “(b) Anti-HIV-1 Cytoprotection Assay”, “accordance with another aspect of the invention, namely in PBMCs.” for “PBMCs:”
# HIV-1 CMU08 (E) = experiment: Anti-HIV-1 cytoprotection assay in PBMCs, isolate CMU08 (E); assay type: cell-based; settings: Human immunodeficiency virus 1, PBMC, CXCR4
# Method: as §1, with “This Example illustrates anti-HIV cytoprotection provided by compounds” for “(b) Anti-HIV-1 Cytoprotection Assay”, “accordance with another aspect of the invention, namely in PBMCs.” for “PBMCs:”
# HIV-1RF = experiment: Anti-HIV cytoprotection evaluation in CEM-SS cells (CPE inhibition, XTT); assay type: cell-based; settings: Human immunodeficiency virus 1, 144 h, 6 days
# Method: (§2) (a) Anti-HIV Cytoprotection Evaluation: Inhibition of virus-induced cytopathic effects (CPE) and cell viability following HIV replication in CEM-SS cells were measured by the use of XTT tetrazolium dye. CEM-SS cells (2.5×10^3 cells per well) were seeded in 96-well U-bottomed tissue culture plates in RPMI medium supplemented with 10% FBS, 2 mM L-glutamine, 100 U/ml penicillin and 100 μg/ml streptomycin. Serially diluted compounds (6 concentrations) and HIV-1RF diluted to a pre-determined titer to yield 85 to 95% cell killing at 6 days post-infection were be added to the plate. AZT was evaluated in parallel as a positive control. Following incubation at 37° C., 5% CO2 for six days, cell viability was measured by XTT staining. The optical density of the cell culture plate will be determined spectrophotometrically at 450 and 650 nm using Softmax Pro 4.6 software. Percent CPE reduction of the virus-infected wells and the percent cell viability of uninfected drug control wells was calculated to define the EC50, TC50 and therapeutic index (TI50) using Microsoft Excel Xlfit4.
# as §2, with “Inhibition” for “(a) Anti-HIV Cytoprotection Evaluation: Inhibition”, “by” for “by the use of”, “wells were” for “wells was”
# PBMCs = experiment: Cytotoxicity in PBMCs (XTT); assay type: cell-based; settings: PBMCs, read-out: TC50 (the source's name)
# Method: as §1
# as §1, with “This Example illustrates anti-HIV cytoprotection provided by compounds” for “(b) Anti-HIV-1 Cytoprotection Assay”, “accordance with another aspect of the invention, namely in PBMCs.” for “PBMCs:”
# [2] = Pharmacokinetic study in male CD-1 mice; assay type: in vivo; settings: for tlast / AUC0-inf / AUC(0-t) / Cmax / MRT inf / Tmax / half-life: 18 and 19 measured as metabolites; for AUC0-inf: 5 mg/kg
# Method: Male CD-1 mice weighing between […] were dosed via orbital sinus injection and blood was collected via submandibular vein. IV dosing solutions were prepared in DMSO:PEG400:Saline (5:35:60, v/v/v) at 1 mg/mL concentration of the prodrug. Blood samples (50 μL each time point) were obtained via Culex at predetermined time points (0, 5, 15, 30, 60, 120, 240, 360, 480 and 1440 min) after dosing. Plasma was obtained by centrifugation within 30 minutes after collection and aliquots of dosing solutions were taken and analyzed at the same time with plasma samples using a validated LC-MS/MS method developed on a Shimadzu HPLC system interfaced to a Sciex QTRAP 5500 mass spectrometer. Eluents were gradient mixtures of water and acetonitrile with 0.10% formic acid. HPLC column was ACE 5 C8, 50×2.1 mm, […]. PK parameters of the analytes were obtained using Phoenix®, WinNonlin® software (version 8.1).
# The study was performed in male CD-1 mice to assess pharmacokinetics (PK) of prodrug 17 and its metabolites 18 and 19.
# HIV-1 UG92001 (D) = experiment: Anti-HIV-1 cytoprotection assay in PBMCs, isolate UG92001 (D); assay type: cell-based; settings: Human immunodeficiency virus 1, PBMC, CXCR4/CCR5
# Method: as §1, with “This Example illustrates anti-HIV cytoprotection provided by compounds” for “(b) Anti-HIV-1 Cytoprotection Assay”, “accordance with another aspect of the invention, namely in PBMCs.” for “PBMCs:”
# HIV-1 BR93020 (F) = experiment: Anti-HIV-1 cytoprotection assay in PBMCs, isolate BR93020 (F); assay type: cell-based; settings: Human immunodeficiency virus 1, CCR5
# Method: as §1, with “This Example illustrates anti-HIV cytoprotection provided by compounds” for “(b) Anti-HIV-1 Cytoprotection Assay”, “accordance with another aspect of the invention, namely in PBMCs.” for “PBMCs:”
# [3] = Cell viability of uninfected drug control wells, CEM-SS cells (XTT); assay type: cell-based; settings: human, read-out: TC50
# Method: as §2
# as §2, with “Inhibition” for “(a) Anti-HIV Cytoprotection Evaluation: Inhibition”, “by” for “by the use of”, “wells were” for “wells was”
# HIV-1 ZA97009 (C) = experiment: Anti-HIV-1 cytoprotection assay in PBMCs, isolate ZA97009 (C); assay type: cell-based; settings: Human immunodeficiency virus 1, CCR5
# Method: as §1, with “This Example illustrates anti-HIV cytoprotection provided by compounds” for “(b) Anti-HIV-1 Cytoprotection Assay”, “accordance with another aspect of the invention, namely in PBMCs.” for “PBMCs:”
# HIV-1 RW92009 (A) = experiment: Anti-HIV-1 cytoprotection assay in PBMCs, isolate RW92009 (A); assay type: cell-based; settings: Human immunodeficiency virus 1, PBMC, CXCR4/CCR5
# Method: as §1, with “This Example illustrates anti-HIV cytoprotection provided by compounds” for “(b) Anti-HIV-1 Cytoprotection Assay”, “accordance with another aspect of the invention, namely in PBMCs.” for “PBMCs:”
# HIV-1 HT92599 (B) = experiment: Anti-HIV-1 cytoprotection assay in PBMCs, isolate HT92599 (B); assay type: cell-based; settings: Human immunodeficiency virus 1, PBMC, CXCR4
# Method: as §1, with “This Example illustrates anti-HIV cytoprotection provided by compounds” for “(b) Anti-HIV-1 Cytoprotection Assay”, “accordance with another aspect of the invention, namely in PBMCs.” for “PBMCs:”
# HIV-1 BCF01 (O) = experiment: Anti-HIV-1 cytoprotection assay in PBMCs, isolate BCF01 (O); assay type: cell-based; settings: Human immunodeficiency virus 1, CCR5
# Method: as §1, with “This Example illustrates anti-HIV cytoprotection provided by compounds” for “(b) Anti-HIV-1 Cytoprotection Assay”, “accordance with another aspect of the invention, namely in PBMCs.” for “PBMCs:”
# [4] = system: simian immunodeficiency virus (SIV); settings: SAMT-247 in combination with ΔV1DNA-ALVAC/gp120/alum vaccine; Rahman et al., Nature Microbiology 8; cited from earlier work
# [5] = PBMC, HIV-192RW009, 7 days, XTT
# [6] = mouse, in vivo, single IV bolus 5 mg/kg of compound 17, male CD-1 mice, plasma
# [7] = single IV bolus 5 mg/kg of compound 17, male CD-1 mice, plasma
# [8] = male, CD-1, mouse, in vivo, iv, single IV bolus 5 mg/kg of compound 17, male CD-1 mice, plasma, read-out: AUC0-inf
smiles,measurement,setting,value
"Cn1cnc([N+](=O)[O-])c1Sc1ccccc1C(=O)NCCn1ccc(=O)c2cc3c(cc21)OCO3 [Compound 3, 2-((1-methyl-4-nitro-1H-imidazol-5-yl)thio)-N-(2-(8-oxo-[1,3]dioxolo[4,5-g]quinolin-5(8H)-yl)ethyl)benzamide]",CC50 at 7 days,[1]; [5],> 100 µM
same,EC50,HIV-192RW009,17.7 µM
"CCCC(=O)OCSc1ccccc1C(=O)NCCn1cc(C(=O)NCc2cccc(C)n2)c(=O)c2cc3c(cc21)OC(F)(F)O3 [Compound 17, ((2-((2-(2,2-difluoro-7-(((6-methylpyridin-2-yl)methyl)carbamoyl)-8-oxo-[1,3]dioxolo[4,5-g]quinolin-5(8H)-yl)ethyl)carbamoyl)phenyl)thio)methyl butyrate]",EC50,HIV-1 RU132 (G),6.85 µM
same,EC50,HIV-1 CMU08 (E),5.23 µM
same,EC50,HIV-1RF,1.48 µM
same,CC50 at 7 days,"[1]; PBMCs, line of isolate CMU08 (E)",> 100 µM
same,CC50,PBMCs; line of isolate BCF01 (O),> 100 µM
same,CC50,PBMCs; line of isolate BR93020 (F),> 100 µM
same,CC50,PBMCs; line of isolate HT92599 (B),> 100 µM
same,CC50,PBMCs; line of isolate RU132 (G),> 100 µM
same,CC50,PBMCs; line of isolate RW92009 (A),> 100 µM
same,CC50,PBMCs; line of isolate UG92001 (D),> 100 µM
same,CC50,PBMCs; line of isolate ZA97009 (C),> 100 µM
same,clearance,"[2]; mouse, in vivo, single IV bolus 5 mg/kg of compound 17, male CD-1 mice",136 mL/min/kg
same,C0,[2]; [6],1910 ng/mL
same,Vd,"[2]; mouse, in vivo, single IV bolus 5 mg/kg of compound 17, male CD-1 mice, read-out: Vss",9.6 L/kg
same,tlast,[2]; [7],8.00 h
same,EC50,HIV-1 UG92001 (D),5.14 µM
same,EC50,HIV-1 BR93020 (F),2.01 µM
same,CC50 at 6 days,[3],> 100 µM
same,EC50,HIV-1 ZA97009 (C),10.7 µM
same,EC50,HIV-1 RW92009 (A),4.26 µM
same,EC50,HIV-1 HT92599 (B),6.52 µM
same,EC50,HIV-1 BCF01 (O),7.79 µM
"CCCC(=O)OCSc1ccccc1C(=O)NCCn1ccc(=O)c2cc3c(cc21)OCO3 [Compound 2, ((2-((2-(8-oxo-[1,3]dioxolo[4,5-g]quinolin-5(8H)-yl)ethyl)carbamoyl)phenyl)thio)methyl butyrate]",EC50,HIV-1RF,1.15 µM
same,CC50 at 7 days,[1]; [5],> 100 µM
same,CC50 at 6 days,[3],32.2 µM
same,EC50,HIV-192RW009,0.48 µM
"Cc1cccc(CNC(=O)c2cn(CCNC(=O)c3ccccc3Sc3c([N+](=O)[O-])ncn3C)c3cc4c(cc3c2=O)OC(F)(F)O4)n1 [Compound 18, 2,2-difluoro-5-(2-(2-((1-methyl-4-nitro-1H-imidazol-5-yl)thio)benzamido)ethyl)-N-((6-methylpyridin-2-yl)methyl)-8-oxo-5,8-dihydro-[1,3]dioxolo[4,5-g]quinoline-7-carboxamide]",AUC0-inf,[2]; [8],42.5 ng·h/mL
same,Exposure (AUC0-t) lower than that of 17,"[2]; metabolite versus 17 after single IV bolus 5 mg/kg of 17, male mice",approximately 17 fold
same,AUC(0-t),[2]; [6],34.8 ng·h/mL
same,Cmax,[2]; [6],75.6 ng/mL
same,MRT inf,[2]; [6],224 min
same,Tmax,[2]; [6],4.98 min
same,half-life,[2]; [6],164 min
same,tlast,[2]; [7],8.00 h
same,AUC0-inf,[2]; [7],34.8 ng·h/mL
Cc1cccc(CNC(=O)c2cn(CCNC(=O)c3ccccc3S)c3cc4c(cc3c2=O)OC(F)(F)O4)n1 [Compound 19],AUC0-inf,[2]; [8],13.1 ng·h/mL
same,AUC(0-t),[2]; [6],12.8 ng·h/mL
same,Cmax,[2]; [6],46.9 ng/mL
same,MRT inf,[2]; [6],19.8 min
same,Tmax,[2]; [6],4.98 min
same,half-life,[2]; [6],21 min
same,tlast,[2]; [7],2.00 h
same,AUC0-inf,[2]; [7],12.8 ng·h/mL
"CCCC(=O)OCSc1ccccc1C(=O)NCCn1cc(C(=O)NCc2cccc(C)n2)c(=O)c2cc3c(cc21)OCO3 [Compound 4, ((2-((2-(7-(((6-methylpyridin-2-yl)methyl)carbamoyl)-8-oxo-[1,3]dioxolo[4,5-g]quinolin-5(8H)-yl)ethyl)carbamoyl)phenyl)thio)methyl butyrate]",EC50,HIV-1RF,0.48 µM
same,CC50 at 7 days,[1]; [5],> 100 µM
same,CC50 at 6 days,[3],> 100 µM
same,EC50,HIV-192RW009,1.09 µM
"CCCC(=O)OCSc1ccccc1C(=O)NCCn1cc(C(=O)NCc2ccccn2)c(=O)c2cc3c(cc21)OCO3 [Compound 5, ((2-((2-(8-oxo-7-((pyridin-2-ylmethyl)carbamoyl)-[1,3]dioxolo[4,5-g]quinolin-5(8H)-yl)ethyl)carbamoyl)phenyl)thio)methyl butyrate]",EC50,HIV-1RF,0.54 µM
same,CC50 at 7 days,[1]; [5],> 100 µM
same,CC50 at 6 days,[3],> 100 µM
same,EC50,HIV-192RW009,0.91 µM
"CC(=O)Sc1ccccc1C(=O)NCCC(N)=O [SAMT-247, 3-(S-acetylthiosalicyloyl)aminopropamide or N-[2-ccetylthiobenzoyl]-β-alaninamide]",female macaques protected against vaginal acquisition of SIV,[4],16 out of 20
"CCCC(=O)OCSc1ccccc1C(=O)NCCn1ccc(=O)c2cc(F)ccc21 [Compound 1, ((2-((2-(6-fluoro-4-oxoquinolin-1(4H)-yl)ethyl)carbamoyl)phenyl)thio)methyl butyrate]",EC50,HIV-1RF,0.56 µM
same,CC50 at 7 days,[1]; [5],> 100 µM
same,CC50 at 6 days,[3],56.2 µM
same,EC50,HIV-192RW009,2.48 µM
"Cc1cccc(CNC(=O)c2cn(CCNC(=O)c3ccccc3Sc3c([N+](=O)[O-])ncn3C)c3cc4c(cc3c2=O)OCO4)n1 [Compound 6, 5-(2-(2-((1-methyl-4-nitro-1H-imidazol-5-yl)thio)benzamido)ethyl)-N-((6-methylpyridin-2-yl)methyl)-8-oxo-5,8-dihydro-[1,3]dioxolo[4,5-g]quinoline-7-carboxamide]",CC50 at 7 days,[1]; [5],> 100 µM
same,EC50,HIV-192RW009,30.9 µM

# Source: patent US20260216172A1, “COMPOUNDS AND METHOD FOR TREATING HIV INFECTION” (The United States of America, as represented by the …, priority 2023, published 2026)
